Measured values from a melting point compilation (Tetko et al.; mined from patent text by program, amines drawn as free bases though some values may be those of a salt).

| melting point [°C] | Structure (SMILES) |
| --- | --- |
| 154 to 155 | CC1(C)OCC(CNc2c([N+](=O)[O-])cnc3cc(OCc4ccccc4)ccc23)O1 (configuration not stated) |
| 144 to 145 | CCN(C(=S)Nc1cc(Cl)ccc1C)c1c(C)nn(C)c1C |
| 159 | CC12CC(CCCCCCl)C3c4ccc(O)cc4CCC3C1CCC2O (configuration not stated) |
| 241 to 244 | O=C(c1ccccc1)N1CCc2[nH]c3cccc(-c4ccccc4F)c3c2CC1 |
| 102 to 103 | CCCCCCCCCCCC(=O)c1c[nH]c(C(=O)OC)c1 |
| 238 to 240 | N#CN=c1ccccn1C1=CC(CF)(CF)Oc2ccc([N+](=O)[O-])cc21 |
| 102 to 108 | c1ccc2c(c1)Oc1ccncc1O2 |
| 136 to 138 | COc1ccc(F)cc1C(C)(C)CC(O)(Cc1ccc(C(C)=NO)cc1Cl)C(F)(F)F (configuration not stated) |
| 144 to 145 | O=c1oc(-c2ccc(C(F)(F)F)cc2)nn1Cc1cc(Cl)ccc1O |
| 128 to 131 | CCOC(=O)N(C)CC1CN(c2c(F)cc3c(=O)c(C(=O)O)cn(C4CC4)c3c2F)CCO1 (configuration not stated) |
| 153 to 155 | O=C1CCC(N2Cc3c(OCc4ccc(CN5Cc6ccccc6C5)cc4)cccc3C2=O)C(=O)N1 (configuration not stated) |
| 149 to 151 | COc1ccc(Cl)c(NC(=O)Cc2ccc(Cl)cc2)c1 |
| 74.7 | CC(=O)N(C)[C@@H]1CN2C(=O)N(c3cc(Cl)cc(Cl)c3)C(=O)[C@@]2(Cc2ccc(OC(F)(F)F)cc2)C1 |
| 252 to 256 | O=C(O)c1cn(-c2ccc(F)cc2)c2cc(F)c(F)cc2c1=O |
| 180 | CN(C)CCOc1ccccc1-c1cc(NC(N)=O)c(C(N)=O)s1 |
| 110 to 114 | O[C@@H]1c2ccccc2CC[C@H]1NCc1ccccc1 (relative stereo) |
| 100 to 101 | O=C(O)CCC(=NOCc1ccc(OCc2cc(-c3ccccc3)on2)cc1)c1ccccc1 |
| 149 to 150 | O=C1CCCCN1C1=CC(CF)(CF)Oc2ccc(C(F)(F)C(F)(F)F)cc21 |
| 111 to 113 | Cc1c(-c2cccnc2)n(CCCCCC(=O)O)c2ccccc12 |
| 234 to 237 | S=c1[nH]c(=S)c2ccccc2[nH]1 |
| 105 to 109 | O=C(O)C(Oc1ccc(OCc2ccccc2)cc1)c1ccc(OCCCOc2ccc(Cl)cc2)cc1 (configuration not stated) |
| 181 to 185 | CN(C)CCc1[nH]c2ccccc2c1CC(C#N)(c1ccccc1)c1ccccc1 |
| 75 | CCC[C@H]1CC[C@H](CCCOc2ccc(C(=O)O[C@H](c3ccccc3)[C@H](OC(=O)c3ccc(OCCC[C@H]4CC[C@H](CCC)CC4)cc3)c3ccccc3)cc2)CC1 |
| > 300 | Cc1nc(-c2ccc(C(=O)O)cc2)sc1C(=O)O |
| 251 | Cc1cc(C=NNC(=O)c2ccc(O)cc2)oc1C |
| 135 to 136 | CC(C)=C1OC(=O)N(c2ccc(Cl)cc2)C1=O |
| 202 to 203 | CCCCc1c2c(nn1C)c(N)nc1ccccc12 |

The next lines start with the compound.

| Structure (SMILES) | melting point [°C] |
| --- | --- |
| CCn1c(C(O)(Cc2ccccc2)Cc2ccccc2)nc(-c2ccncc2)c1-c1ccc(Cl)cc1 | 116 to 117 |
| Fc1ccc(OC2CCN(CCc3c[nH]c4ccccc34)CC2)cc1 | 109 to 111 |
| CCOP(=O)(Cc1ccc(NC(=O)c2sc(SC)c3c2CCc2sc(CC)nc2-3)cc1)OCC | 179 to 180 |
| CCCCC1(CCCC)CCc2c(OCc3ccc4ccccc4n3)ccc(C)c2C1O (configuration not stated) | 149 to 151 |
| Cc1ccccc1P(=NC(=O)OCc1cccnc1)(c1ccccc1)c1ccccc1 | 142 to 143 |
| CCOC(=O)c1nc2n(n1)-c1ccc([N+](=O)[O-])cc1C(c1ccccc1F)=NC2 | 165 to 167 |
| C=CC(C)c1cc(C)c2c(c1O)C(N(C)C=O)C1CCCCC21 (configuration not stated) | 158 to 159 |
| CC1(C)C(=O)N(c2ccc(C#N)c(C(F)(F)F)c2)C(=O)N1CCCCO[N+](=O)[O-] | 74 to 75 |
| CCOc1ccccc1C=[N+]([O-])C(C)C | 59.4 |
| Cc1ccc2c(c1)C(=O)N(C)Cc1c(C(N)=NO)ncn1-2 | 227 to 229 |
| C=C(F)C(C)(C)C(=O)Nc1ccc(Cl)cc1 | 75 to 76 |
| CCC(C(=O)c1ccc(N(CCN(CC)CC)S(C)(=O)=O)cc1)c1ccccc1 (configuration not stated) | 76 to 77 |
| Cc1c(-c2ccccc2)nn(C(C)(C)C(=O)N(C)C)c1Cl | 96 to 99 |
| CC(C)n1c(/C=C/[C@H]2C[C@H](CC(=O)OC(C)(C)C)OC(C)(C)O2)c(-c2ccc(F)cc2)c(-c2ccccc2)c1C(N)=O | 73 to 75 |
| O=[N+]([O-])c1cc(S(=O)c2ccc(-c3ccccc3)cc2)ccc1Cl (configuration not stated) | 98 to 99 |
| Nc1ncc2c(n1)-c1ccc(Cl)cc1C(c1ccccc1)=NC2 | 209 to 210 |
| CC(=O)Nc1cc(O)c(C(=O)CCCCl)cc1Cl | 103 to 106 |
| Cc1nc(N2CCc3ccccc3CC2)c(C#N)c(=O)n1C1CC1 | 177 to 179 |
| CCCCCCCCCCCCCC/C=C\CC[C@@H]1OC(=O)C(O)=C1O | 64 to 66 |
| CC(C)=C1C(=O)N(c2cc(F)c(C#N)cc2F)C(=O)C1=C(C)C | 144 |
